Experimental data from paper PMC12006171, “Marsupial cathelicidins: characterization, antimicrobial activity and evolution in this unique mammalian lineage” (Frontiers in Immunology, 2025).
Converted amounts (≈) assume the structure as drawn. Like-named read-outs stand apart in the source and are kept apart here. Where a SMILES comes first, the peptide text is derived from it.

Experiments:
Format in all cases: cell-based
[1] = system: Streptococcus agalactiae ATCC 12386; assay: microbe, parasite or virus in culture; conditions: µM equivalent of Table 3
Summary of the method: (§1)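 Broth microdilution per CLSI M07-A/M26A; peptides in DMSO, final 64-0.125 μg/mL, inoculum 5 x 10^5 CFU/mL. Bacteria in MHB ± 10% lysed horse blood ± Ca/Mg cations, yeasts in RPMI-1640 MOPS; 35°C for 20–24 h. MIC is lowest concentration without visible growth.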

[2] = system: Streptococcus pneumoniae ATCC 49619; assay: microbe, parasite or virus in culture; conditions: µM equivalent of Table 3
Summary of the method: as §1

[3] = system: Streptococcus agalactiae Clinical isolate - animal; assay: microbe, parasite or virus in culture; conditions: clinical isolate, µM equivalent of Table 3
Summary of the method: as §1

[4] = system: Candida parapsilosis ATCC 22019; assay: microbe, parasite or virus in culture; conditions: µM version of Table 4
Summary of the method: as §1

[5] = system: Candida albicans Clinical isolate - human; assay: microbe, parasite or virus in culture; conditions: clinical isolate; µM version of Table 4; read-out: MIC C. albicans
Summary of the method: as §1

Candida krusei ATCC 6258 = assay: microbe, parasite or virus in culture; conditions: µM version of Table 4
Summary of the method: as §1

[6] = system: Escherichia coli clinical isolate - animal; assay: microbe, parasite or virus in culture; conditions: clinical isolate; for MIC in the presence of cations E. coli: superscript value, cation-adjusted Mueller Hinton broth
Summary of the method: (§2)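 CLSI broth microdilution, MHB ± cations ± 10% lysed horse blood; peptide 64-0.125μg/mL final, duplicates; 5 x 10^5 CFU/mL; 35°C, 20–24 h; MIC = no visible growth.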

[7] = system: Escherichia coli ATCC 25922; assay: microbe, parasite or virus in culture
Summary of the method: as §2

[8] = system: Pseudomonas aeruginosa ATCC 27853; assay: microbe, parasite or virus in culture
Summary of the method: as §2

[9] = system: Staphylococcus aureus ATCC 29213; assay: microbe, parasite or virus in culture; conditions: µM equivalent of Table 3
Summary of the method: as §2

[10] = system: Staphylococcus aureus clinical isolate - animal; assay: microbe, parasite or virus in culture; conditions: clinical isolate
Summary of the method: as §2

[11] = system: Pseudomonas aeruginosa clinical isolate - animal; assay: microbe, parasite or virus in culture; conditions: clinical isolate, µM equivalent of Table 3
Summary of the method: as §2

[12] = system: Staphylococcus aureus clinical isolate – animal, methicillin-resistant (MRSA); conditions: µM equivalent of Table 3
Summary of the method: as §1

[13] = system: Staphylococcus aureus clinical isolate – animal, penicillin-resistant (PRSA); conditions: µM equivalent of Table 3
Summary of the method: as §1

[14] = value in brackets, µM equivalent of Table 3
[15] = superscript value, cation-adjusted Mueller Hinton broth, µM equivalent

`CC[C@H](C)[C@H](NC(=O)[C@H](CCCCN)NC(=O)[C@H](Cc1ccccc1)NC(=O)[C@H](CC(N)=O)NC(=O)[C@H](CCCCN)NC(=O)[C@H](CC(C)C)NC(=O)[C@H](CCCNC(=N)N)NC(=O)[C@H](CCCCN)NC(=O)[C@H](CCCCN)NC(=O)[C@@H](NC(=O)[C@H](CO)NC(=O)[C@H](CC(=O)O)NC(=O)CNC(=O)[C@H](Cc1ccccc1)NC(=O)[C@H](CCCCN)NC(=O)[C@H](CCCCN)NC(=O)[C@H](CC(C)C)NC(=O)[C@H](CCCCN)NC(=O)[C@H](CCCCN)NC(=O)[C@H](CCCCN)NC(=O)[C@H](CC(C)C)NC(=O)[C@H](CO)NC(=O)[C@H](CCCCN)NC(=O)[C@H](Cc1c[nH]c2ccccc12)NC(=O)[C@H](CC(C)C)NC(=O)CNC(=O)[C@H](CCCNC(=N)N)NC(=O)[C@@H](N)CCCCN)[C@@H](C)CC)C(=O)NCC(=O)N[C@@H](Cc1ccccc1)C(=O)N1CCC[C@H]1C(=O)N[C@H](C(=O)N1CCC[C@H]1C(=O)N[C@@H](CC(C)C)C(=O)O)[C@@H](C)CC` [MAP14] (H-KRGLWKSLKKKLKKFGDSIKKRLKNFKIGFPIPL-OH) was tested, and the MBC S. agalactiae ATCC ([1]; value in brackets) was 15.8 µM, the MIC S. agalactiae ATCC [1] was 15.8 µM and the MBC S. pneumoniae ATCC ([2]; value in brackets) was 7.9 µM. The MIC S. pneumoniae ATCC [2] was 7.9 µM, the MBC S. agalactiae ([3]; value in brackets) was 7.9 µM and the MIC S. agalactiae [3] was 7.9 µM. For the same compound, the “MFC C. parapsilosis ATCC” value ([4]; value in brackets) was 7.9 µM (≈ 31.9 µg/mL), the MIC ([4]; read-out: MIC C. parapsilosis ATCC) was 3.9 µM (≈ 15.8 µg/mL) and the MIC [5] was >15.8 µM. The MFC C. krusei ATCC (Candida krusei ATCC 6258; value in brackets) was > 15.8 µM, the MIC C. krusei ATCC (Candida krusei ATCC 6258) was 15.8 µM (≈ 63.9 µg/mL) and the “MIC in the presence of cations E. coli” value [6] was 4 µg/mL. The “MIC in the presence of cations E. coli” value ([6]; µM equivalent) was 0.9 µM, the “MBC E. coli” value [6, 14] was 1.9 µM and the MIC ([6]; µM equivalent of Table 3) was 1.9 µM. For the same compound, the “MIC in the presence of cations E. coli ATCC” value [7, 15] was 1.9 (1.9)^1.9 µM, the “MBC E. coli ATCC” value [7, 14] was 1.9 (1.9)^1.9 µM and the “MIC E. coli ATCC” value ([7]; µM equivalent of Table 3) was 1.9 (1.9)^1.9 µM. The MIC ([8]; superscript value, cation-adjusted Mueller Hinton broth, µM equivalent, read-out: MIC in the presence of cations P. aeruginosa ATCC) was 1.9 µM, the “MBC P. aeruginosa ATCC” value [8, 14] was 3.9 µM and the MIC ([8]; µM equivalent of Table 3, read-out: MIC P. aeruginosa ATCC) was 3.9 µM. For the same compound, the “MIC in the presence of cations S. aureus ATCC” value ([9]; superscript value, cation-adjusted Mueller Hinton broth) was 7.9 (7.9)^7.9 µM, the “MBC S. aureus ATCC” value ([9]; value in brackets) was 7.9 (7.9)^7.9 µM and the “MIC S. aureus ATCC” value [9] was 7.9 (7.9)^7.9 µM. The “MIC in the presence of cations S. aureus” value [10, 15] was 7.9 (7.9)^7.9 µM, the “MBC S. aureus” value [10, 14] was 7.9 (7.9)^7.9 µM and the “MIC S. aureus” value ([10]; µM equivalent of Table 3) was 7.9 (7.9)^7.9 µM. For the same compound, the “MBC P. aeruginosa” value ([11]; value in brackets) was 3.9 (3.9)^3.9 µM, the “MIC P. aeruginosa” value [11] was 3.9 (3.9)^3.9 µM and the MBC MRSA ([12]; value in brackets) was 15.8 µM. The MIC MRSA [12] was 15.8 µM, the MBC PRSA ([13]; value in brackets) was 3.9 µM and the MIC PRSA [13] was 3.9 µM.
